Data from PMC7181660, “A novel specific PERK activator reduces toxicity and extends survival in Huntington's disease models” (Scientific Reports, 2020).

Columns and labels:
Test in all cases: biochemical
Format in all cases: biochemical
panel of 391 kinases [1] = target: panel of 391 kinases (Homo sapiens, UniProt Q9BZL6); conditions: PKD2/PRKD2, MK-28 1 µM, ATP 1 µM
panel of 391 kinases [2] = target: panel of 391 kinases (Homo sapiens, UniProt Q9UBE8); conditions: NLK, MK-28 1 µM, ATP 1 µM
panel of 391 kinases [3] = target: panel of 391 kinases (Homo sapiens, UniProt Q14164); conditions: IKKe/IKBKE, MK-28 1 µM, ATP 1 µM
panel of 391 kinases [4] = target: panel of 391 kinases (Homo sapiens, UniProt Q9H2K8); conditions: TAOK3/JIK, MK-28 1 µM, ATP 1 µM
panel of 391 kinases [5] = target: panel of 391 kinases (Homo sapiens, UniProt P36894); conditions: ALK3/BMPR1A, MK-28 1 µM, ATP 1 µM
panel of 391 kinases [6] = target: panel of 391 kinases (Homo sapiens, UniProt Q15120); conditions: kinase PDK3/PDHK3, compound at 1 µM, single dose in duplicates, 1 µM ATP
panel of 391 kinases [7] = target: panel of 391 kinases (Homo sapiens, UniProt Q16566); conditions: CAMK4, MK-28 1 µM, ATP 1 µM
panel of 391 kinases [8] = target: panel of 391 kinases (Homo sapiens, UniProt O96017); conditions: CHK2, MK-28 1 µM, ATP 1 µM
panel of 391 kinases [9] = target: panel of 391 kinases (Homo sapiens, UniProt Q05655); conditions: PKCd, MK-28 1 µM, ATP 1 µM
panel of 391 kinases [10] = target: panel of 391 kinases (Homo sapiens, UniProt Q96BR1); conditions: SGK3/SGKL, MK-28 1 µM, ATP 1 µM
panel of 391 kinases [11] = target: panel of 391 kinases (Homo sapiens, UniProt P42685); conditions: FRK/PTK5, MK-28 1 µM, ATP 1 µM
panel of 391 kinases [12] = target: panel of 391 kinases (Homo sapiens, UniProt Q9UQM7); conditions: CAMK2a, MK-28 1 µM, ATP 1 µM
panel of 391 kinases [13] = target: panel of 391 kinases (Homo sapiens, UniProt Q86UE8); conditions: TLK2, MK-28 1 µM, ATP 1 µM
panel of 391 kinases [14] = target: panel of 391 kinases (Homo sapiens, UniProt P51817); conditions: PRKX, MK-28 1 µM, ATP 1 µM
panel of 391 kinases [15] = target: panel of 391 kinases (Homo sapiens, UniProt O95382); conditions: MEKK6, MK-28 1 µM, ATP 1 µM
panel of 391 kinases [16] = target: panel of 391 kinases (Homo sapiens, UniProt Q13557); conditions: CAMK2d, MK-28 1 µM, ATP 1 µM
panel of 391 kinases [17] = target: panel of 391 kinases (Homo sapiens, UniProt P16591); conditions: FER, MK-28 1 µM, ATP 1 µM
panel of 391 kinases [18] = target: panel of 391 kinases (Homo sapiens, UniProt P49759); conditions: CLK1, MK-28 1 µM, ATP 1 µM
panel of 391 kinases [19] = target: panel of 391 kinases (Homo sapiens, UniProt O00311); conditions: CDC7/DBF4, MK-28 1 µM, ATP 1 µM
panel of 391 kinases [20] = target: panel of 391 kinases (Homo sapiens, UniProt Q13188); conditions: MST2/STK3, MK-28 1 µM, ATP 1 µM
panel of 391 kinases [21] = target: panel of 391 kinases (Homo sapiens, UniProt Q9NRM7); conditions: LATS2, MK-28 1 µM, ATP 1 µM
panel of 391 kinases [22] = target: panel of 391 kinases (Homo sapiens, UniProt Q9Y2U5); conditions: MEKK2, MK-28 1 µM, ATP 1 µM
panel of 391 kinases [23] = target: panel of 391 kinases (Homo sapiens, UniProt Q8TD08); conditions: ERK7/MAPK15, MK-28 1 µM, ATP 1 µM
panel of 391 kinases [24] = target: panel of 391 kinases (Homo sapiens, UniProt P14616); conditions: IRR/INSRR, MK-28 1 µM, ATP 1 µM
panel of 391 kinases [25] = target: panel of 391 kinases (Homo sapiens, UniProt P51451); conditions: BLK, MK-28 1 µM, ATP 1 µM
panel of 391 kinases [26] = target: panel of 391 kinases (Homo sapiens, UniProt Q13470); conditions: TNK1, MK-28 1 µM, ATP 1 µM
[27] = read-out: % Enzyme Activity (relative to DMSO controls)

For `CN(/N=C\c1ccc(O)c(O)c1)c1nc(-c2ccccc2)cc(-c2ccccc2)n1` [MK-28], the “% Enzyme Activity (relative to DMSO controls)” value (panel of 391 kinases [1]) was 86.38%, the remaining activity at 1 µM (panel of 391 kinases [1]; [27]) was 87% and the “% Enzyme Activity (relative to DMSO controls)” value (panel of 391 kinases [2]) was 99.19%. For the same compound, the remaining activity at 1 µM (panel of 391 kinases [2]; [27]) was 105%, the “% Enzyme Activity (relative to DMSO controls)” value (panel of 391 kinases [3]) was 93.45% and the remaining activity at 1 µM (panel of 391 kinases [3]; [27]) was 96%. For the same compound, the “% Enzyme Activity (relative to DMSO controls)” value (panel of 391 kinases [4]) was 100.19%, the remaining activity at 1 µM (panel of 391 kinases [4]; [27]) was 103% and the “% Enzyme Activity (relative to DMSO controls)” value (panel of 391 kinases [5]) was 98.85%. For the same compound, the remaining activity at 1 µM (panel of 391 kinases [5]; [27]) was 106%, the “% Enzyme Activity (relative to DMSO controls)” value (panel of 391 kinases [6]) was 102.25% and the remaining activity at 1 µM (panel of 391 kinases [6]; [27]) was 105%. The “% Enzyme Activity (relative to DMSO controls)” value (panel of 391 kinases [7]) was 99.67%, the remaining activity at 1 µM (panel of 391 kinases [7]; [27]) was 101% and the “% Enzyme Activity (relative to DMSO controls)” value (panel of 391 kinases [8]) was 98.51%. For the same compound, the remaining activity at 1 µM (panel of 391 kinases [8]; [27]) was 101%, the “% Enzyme Activity (relative to DMSO controls)” value (panel of 391 kinases [9]) was 97.74% and the remaining activity at 1 µM (panel of 391 kinases [9]; [27]) was 98.5%. For the same compound, the “% Enzyme Activity (relative to DMSO controls)” value (panel of 391 kinases [10]) was 103.83%, the remaining activity at 1 µM (panel of 391 kinases [10]; [27]) was 105% and the “% Enzyme Activity (relative to DMSO controls)” value (panel of 391 kinases [11]) was 100.16%. For the same compound, the remaining activity at 1 µM (panel of 391 kinases [11]; [27]) was 101%, the “% Enzyme Activity (relative to DMSO controls)” value (panel of 391 kinases [12]) was 100.97% and the remaining activity at 1 µM (panel of 391 kinases [12]; [27]) was 103%. For the same compound, the “% Enzyme Activity (relative to DMSO controls)” value (panel of 391 kinases [13]) was 101.04%, the remaining activity at 1 µM (panel of 391 kinases [13]; [27]) was 102% and the “% Enzyme Activity (relative to DMSO controls)” value (panel of 391 kinases [14]) was 101.69%. The remaining activity at 1 µM (panel of 391 kinases [14]; [27]) was 104%, the “% Enzyme Activity (relative to DMSO controls)” value (panel of 391 kinases [15]) was 101.22% and the remaining activity at 1 µM (panel of 391 kinases [15]; [27]) was 108%. For the same compound, the “% Enzyme Activity (relative to DMSO controls)” value (panel of 391 kinases [16]) was 94.06%, the remaining activity at 1 µM (panel of 391 kinases [16]; [27]) was 94.2% and the “% Enzyme Activity (relative to DMSO controls)” value (panel of 391 kinases [17]) was 101.21%. For the same compound, the remaining activity at 1 µM (panel of 391 kinases [17]; [27]) was 102%, the “% Enzyme Activity (relative to DMSO controls)” value (panel of 391 kinases [18]) was 108.65% and the remaining activity at 1 µM (panel of 391 kinases [18]; [27]) was 109%. The “% Enzyme Activity (relative to DMSO controls)” value (panel of 391 kinases [19]) was 105.60%, the remaining activity at 1 µM (panel of 391 kinases [19]; [27]) was 113% and the “% Enzyme Activity (relative to DMSO controls)” value (panel of 391 kinases [20]) was 100.15%. For the same compound, the remaining activity at 1 µM (panel of 391 kinases [20]; [27]) was 101%, the “% Enzyme Activity (relative to DMSO controls)” value (panel of 391 kinases [21]) was 84.83% and the remaining activity at 1 µM (panel of 391 kinases [21]; [27]) was 88.2%. For the same compound, the “% Enzyme Activity (relative to DMSO controls)” value (panel of 391 kinases [22]) was 91.93%, the remaining activity at 1 µM (panel of 391 kinases [22]; [27]) was 94% and the “% Enzyme Activity (relative to DMSO controls)” value (panel of 391 kinases [23]) was 103.38%. For the same compound, the remaining activity at 1 µM (panel of 391 kinases [23]; [27]) was 105%, the “% Enzyme Activity (relative to DMSO controls)” value (panel of 391 kinases [24]) was 82.69% and the remaining activity at 1 µM (panel of 391 kinases [24]; [27]) was 85.9%. For the same compound, the “% Enzyme Activity (relative to DMSO controls)” value (panel of 391 kinases [25]) was 82.35%, the remaining activity at 1 µM (panel of 391 kinases [25]; [27]) was 85.3% and the “% Enzyme Activity (relative to DMSO controls)” value (panel of 391 kinases [26]) was 104.14%. The remaining activity at 1 µM (panel of 391 kinases [26]; [27]) was 108%.
